In patent US20200390889A1, “REMOTELY TRIGGERED THERAPY” (Bambu Vault LLC, priority 2019, published 2020):

Columns and labels:
[1] = likelihood of association with drug induced liver injury, based upon the known potential of the drug; cited from earlier work
MDA-MB-231 = details: MDA-MB-231, ER-PR-HER2- cells; Hu et al. 2018; cited from earlier work
MDA-MD-468 = details: MDA-MD-468, ER-PR-HER2- cells; Hu et al. 2018; cited from earlier work
MDA-MB-415 = details: MDA-MB-415, ER+ breast cancer cells; Hu et al. 2018; cited from earlier work
[2] = Laser triggered drug release from particles in gelatin; assay type: physicochemical; details: PMMA beads with 25% VTMS shells in gelatin; Q-switched Lutronic laser 1064 nm, 2.46-5.09 J/cm^2
Description: Procedure: A solution of gelatin was prepared by adding Knox gelatin (1.0 g) to cold water (12.5 g) in a 100 mL glass jar equipped with a magnetic stir bar. The gelatin was stirred 15-30 minutes and then hot water was added (70° C.) until the total weight was 50.0 g. This gelatin was then used in 2.0 gm aliquots. Drug loaded PMMA beads with 25% VTMS shells as prepared in Example 1b above (20-30 mg) were then added to the gelatin solution (2.0 g) and vortexed mixed in a 4 dram vial. The suspension of the tattoo particles in gelatin was then sonicated for 15-30 minutes before transferring to a 5 cm plastic culture dish. The gelatin suspension was spread evenly and allowed to set. It was then covered and placed in a refrigerator a 6° C. until ready for laser exposure.
Laser exposure was accomplished as follows: The cover for the culture dish was removed and a 5 cm clear plastic cover was cut and fit over the gelatin to prevent splatter. The top surface was then completely lasered at 1064 nm with a 5 mm spot using fluences ranging from 2.46 J/cm^2 to 5.09 J/cm^2 using Q-switched Lutronic laser.
After lasering the top surface the culture dish was covered with its lid, turned over and lasered from the opposite side to reach any unexposed beads visible only from the bottom side.
The standard fluence for tattoo removal is 3.51 J/cm^2. […]

T47D = details: ER+ breast cancer cells, Hu et al. 2018; cited from earlier work
BT-20 = details: BT-20, ER-PR-HER2- cells; Hu et al. 2018; cited from earlier work
[3] = Percentage of curcumin and Epolight IR 1117 loading / encapsulation determination; assay type: physicochemical; details: in B-805 PMMA/BMA particles made by Example 13(b)
Description: The UV-VIS-NIR absorbance spectrum of the IR absorbing agent and/or the drug is measured using Shimadzu UV-3600 UV-VIS-NIR Spectrophotometer. The concentration of the IR absorbing agent in the particles is determined from application of Beer's law.

MCF7 = details: MCF7, ER+ breast cancer cells; Hu et al. 2018; cited from earlier work
[4] = Leaching (stability) test, protective effect of VTMS shell; assay type: physicochemical; details: post-coating vs pre-coating B-805 particles; 1% SDS in water, sonicated 90 minutes
Description: Prior to the test, particles were dispersed in water for storage at varying concentrations. Amounts of fluid containing 50 mg of particles—a sample of pre-coating particles and a sample of post-coating particles—were weighed into 15 mL conical centrifuge tubes. The tubes were centrifuged to sediment the particles and supernatant was removed. 3 mL of 1% SDS in water was added to each tube, which were then vortexed to resuspend particles. The tubes containing the particles suspended in SDS solution were placed into a sonicated water bath for 90 minutes. The tubes were then removed and centrifuged to sediment the particles again. The supernatant was retained and filtered through a 0.2 μm syringe filter to remove any remaining particles. Absorption spectra of the supernatants was then measured on a Shimadzu 3600 UV/Vis/NIR spectrophotometer from 400-1300 nm. Molarity of colored components in the solutions and the percentage decrease of absorption between post-coating and pre-coating particles was calculated from the spectra.

[5] = Screening of acrylic polymers and additives for IR absorbing agent stability and retention; assay type: physicochemical; details: additive within the particles
Description: Various commercially available acrylic polymers were screened for preferred particle performance characteristic such as particle size distribution, IR absorbing agent stability and encapsulation efficiency. […] NeoCryl® B-818, an ethyl acrylate/ethyl methacrylate copolymer, contained a lower hydroxyl value, but was still swellable in low molecular weight alcohols. NeoCryl® B-805, a methyl methacrylate/butyl methacrylate copolymer, had suitably a low hydroxyl value and a high Tg (99° C.) for human body applications.
The loading of IR absorbing agents within the particles is as high as possible without degrading the cohesion of the polymer. The additives that stabilize the IR absorbing agent within the particles have been studied.

[6] = Retention of tetrakis aminium dye during emulsification with different surfactants; assay type: physicochemical; details: for retention of Epolight 1117 in the particles: during the emulsion and evaporation process
Description: IR absorbing agent weight ratio=4.4:1). The organic phase (polymer and IR absorbing agents dissolved in dichloromethane) was injected directly into the aqueous phase (PVA solution with SDS surfactant) at the tip of the Turrax's roto-stator (i.e. directly into the flow being sheared by the roto-stator). The shear mixing at 8000 RPM was continued for 30 minutes. The resulting mixture was decanted into an open-mouth container and stirred magnetically for 16 hours. A solid suspension of particles containing IR absorbing agent was obtained. The solid suspension was centrifuged at 5000 RPM for 30 minutes and the particles were collected. The collected particles were washed with distilled water by resuspending the particles into distilled water and centrifuging as before to collect the particles. This washing process was repeated three times to remove residual PVA. The resulting MMA/IA/BMA copolymer particles containing IR absorbing agent were air-dried. In the emulsion method of encapsulation, a surfactant is necessary to help keep the emulsion stable. While Aerosol® TR-70 (sodium bis(tridecyl) sulfosuccinate) could be used as an emulsifier to prepare polymer particles encapsulating Epolight™ 1117 tetrakis aminium dye, TR-70 only provided limited stabilization effects on the tetrakis aminium dye. […] Reducing the amount of SDS in the aqueous phase led to lower Epolight™ 1117 retention and larger particle size (Table 5).

[7] = 0.6% surfactant in aqueous phase during emulsification

SMILES	Likelihood Score [1]	other results
CCN1CCN(Cc2ccc(Nc3ncc(F)c(-c4cc(F)c5nc(C)n(C(C)C)c5c4)n3)nc2)CC1 [Abemaciclib]	E*	–
CCS(=O)(=O)N1CC(CC#N)(n2cc(-c3ncnc4[nH]ccc34)cn2)C1 [Baricitinib]	E*	–
Cn1cnc2c(F)c(Nc3ccc(Br)cc3F)c(C(=O)NOCCO)cc21 [Binimetinib]	E*	–
COc1cc(Nc2c(C#N)cnc3cc(OCCCN4CCN(C)CC4)c(OC)cc23)c(Cl)cc1Cl [Bosutinib]	E*	–
COc1cc(N2CCC(N3CCN(C)CC3)CC2)ccc1Nc1ncc(Cl)c(Nc2ccccc2P(C)(C)=O)n1 [Brigatinib]	E*	–
COc1cc2nccc(Oc3ccc(NC(=O)C4(C(=O)Nc5ccc(F)cc5)CC4)cc3)c2cc1OC [Cabozantinib]	E*	–
COc1c(OCCCN2CCOCC2)ccc2c1N=C(NC(=O)c1cnc(N)nc1)N1CCN=C21 [Copanlisib]	E*	–
COc1cc(/C=C/C(=O)CC(=O)/C=C/c2ccc(O)c(OC)c2)ccc1O [Curcumin, curcumin]	–	IC50 (MDA-MB-231): 11.3 ± 2.13 µM; IC50 (MDA-MD-468): 18.6 ± 3.12 µM; IC50 (MDA-MB-415): 4.69 ± 0.06 µM; curcumin released from the particles [2]: about 3 wt. %; IC50 (T47D): 2070 ± 80 nM; IC50 (BT-20): 16.2 ± 2.16 µM; measured encapsulation [3]: 78%; IC50 (MCF7): 1320 ± 60 nM; reduction of leaching by VTMS shell [4]: 70%
Cc1cc(C(C)(C)C)c(O)c(C)c1Cn1c(=O)n(Cc2c(C)cc(C(C)(C)C)c(O)c2C)c(=O)n(Cc2c(C)cc(C(C)(C)C)c(O)c2C)c1=O [Cyanox® 1790, 1,3,5-tris(4-tert-butyl-3-hydroxy-2,6-dimethylbenzyl)-1,3,5-triazine-2,4,6-(1H,3H,5H)-trione]	–	impact on IR absorbing agent stability [5]: positive impact
CC(C)(C)c1nc(-c2cccc(NS(=O)(=O)c3c(F)cccc3F)c2F)c(-c2ccnc(N)n2)s1 [Dabrafenib]	E*	–
COc1cc2ncnc(Nc3ccc(F)c(Cl)c3)c2cc1NC(=O)/C=C/CN1CCCCC1 [Dacomitinib]	E*	–
C[C@H](Nc1ncnc2[nH]cnc12)c1cc2cccc(Cl)c2c(=O)n1-c1ccccc1 [Duvelisib]	E*	–
CC(C)(O)CNc1nc(Nc2ccnc(C(F)(F)F)c2)nc(-c2cccc(C(F)(F)F)n2)n1 [Enasidenib]	E*	–
COC(=O)N[C@@H](C)CNc1nccc(-c2cn(C(C)C)nc2-c2cc(Cl)cc(NS(C)(=O)=O)c2F)n1 [Encorafenib]	E*	–
COc1cc(Nc2ncc(F)c(Nc3ccc4c(n3)N(COP(=O)(O)O)C(=O)C(C)(C)O4)n2)cc(OC)c1OC [Fostamatinib]	E*	–
CCc1nc(C(N)=O)c(Nc2ccc(N3CCC(N4CCN(C)CC4)CC3)c(OC)c2)nc1NC1CCOCC1 [Gilteritinib]	E*	–
CN1CC[C@@H](NC(=O)Nc2ccc(C#N)cc2)C[C@@H]1c1nc2ccccc2[nH]1 [Glasdegib]	E*	–
N#Cc1ccnc(N2C(=O)CC[C@H]2C(=O)N(c2cncc(F)c2)[C@H](C(=O)NC2CC(F)(F)C2)c2ccccc2Cl)c1 [Ivosidenib]	E*	–

SMILES	Likelihood Score [1]	other results
CC(C)C[C@H](NC(=O)CNC(=O)c1cc(Cl)ccc1Cl)B(O)O [Ixazomib]	E*	–
O=C(Nc1cnn2ccc(N3CCC[C@@H]3c3cc(F)ccc3F)nc12)N1CC[C@H](O)C1 [Larotrectinib]	E*	–
C[C@H]1Oc2cc(cnc2N)-c2c(nn(C)c2C#N)CN(C)C(=O)c2ccc(F)cc21 [Lorlatinib]	E*	–
CO[C@@H]1[C@H](N(C)C(=O)c2ccccc2)C[C@H]2O[C@]1(C)n1c3ccccc3c3c4c(c5c6ccccc6n2c5c31)C(=O)NC4 [Midostaurin]	E*	–
CCOc1cc2ncc(C#N)c(Nc3ccc(OCc4ccccn4)c(Cl)c3)c2cc1NC(=O)/C=C/CN(C)C [Neratinib]	E*	–
COC(=O)c1ccc2c(c1)NC(=O)/C2=C(\Nc1ccc(N(C)C(=O)CN2CCN(C)CC2)cc1)c1ccccc1 [Nintedanib]	E*	–
NC(=O)c1cccc2cn(-c3ccc([C@@H]4CCCNC4)cc3)nc12 [Niraparib]	E*	–
CC(=O)c1c(C)c2cnc(Nc3ccc(N4CCNCC4)cn3)nc2n(C2CCCC2)c1=O [Palbociclib]	E*	–
Cc1ccc(C(=O)Nc2ccc(CN3CCN(C)CC3)c(C(F)(F)F)c2)cc1C#Cc1cnc2cccnn12 [Ponatinib]	E*	–
CNCc1ccc(-c2[nH]c3cc(F)cc4c3c2CCNC4=O)cc1 [Rucaparib]	D*	–
N#CC[C@H](C1CCCC1)n1cc(-c2ncnc3[nH]ccc23)cn1 [Ruxolitinib]	E*	–
CCCCCCCCCCCCOS(=O)(=O)[O-].[Na+] [SDS, sodium dodecyl sulfate]	–	% Epolight 1117 Retention ([6]; 0.2% surfactant in aqueous phase during emulsification): 74.97%; % Epolight 1117 Retention ([6]; 0.4% surfactant in aqueous phase during emulsification): 80.17%; % Epolight 1117 Retention [6, 7]: 82.96%; retention of Epolight 1117 in the particles [6]: 85-90%
Cc1c(C(=O)Nc2ccc(N3C[C@@H](C)O[C@@H](C)C3)nc2)cccc1-c1ccc(OC(F)(F)F)cc1 [Sonidegib]	E*	–
CCCCCCCCCCCCCOC(=O)CC(C(=O)OCCCCCCCCCCCCC)S(=O)(=O)O.[Na] (centres unmarked) [TR-70, sodium bis(tridecyl) sulfosuccinate]	–	% Epolight 1117 Retention [6, 7]: 51.70%; retention of Epolight 1117 in the particles [6]: 50%
Cn1ncnc1[C@H]1c2n[nH]c(=O)c3cc(F)cc(c23)N[C@@H]1c1ccc(F)cc1 [Talazoparib]	E*	–
COc1cc2c(Nc3ccc(Br)cc3F)ncnc2cc1OCC1CCN(C)CC1 [Vandetanib]	E*	–
CCCS(=O)(=O)Nc1ccc(F)c(C(=O)c2c[nH]c3ncc(-c4ccc(Cl)cc4)cc23)c1F [Vemurafenib]	E*	–
